Experimental data taken from patent publication EP0399716A1, “Hypoallergenic steroidal anesthetic/hypnotic compositions” (INNOVET, INC., priority 1989, dated 1990).

Test system: horses
Assay: Alfaxalone/HPCD anesthesia in the horse
Experimental: In the first stage, two horses were anesthetized after heavy premedication with xylazine (0.6 mg/kg). […] Heart rate, respiratory rate, blood pressure, ECG and ventilation were monitored throughout the anesthesia period.
The same parameters as in the first stage were monitored.
Cardiopulmonary parameters were monitored as before.
To provide some comparison in the above stages, the two horses were anesthetized with thiamylal sodium (8 mg/kg) after the same premedication as before and a similar monitoring regime followed.
A third horse was obtained and the same regimen was followed as in the third stage, but three "top-ups" of one-third induction dose were administered at 10 minute intervals. Similar monitoring as above was continued.
Blood pressure was measured from an acutely placed antraarterial catheter and read through a transducer/digital readout system which included an ECG tracing oscilloscope.

In the case of `CC(=O)[C@H]1CC[C@H]2[C@@H]3CC[C@H]4C[C@H](O)CC[C@]4(C)[C@H]3C(=O)C[C@]12C` (stereo in doubt) [alfaxalone, 3α-hydroxy-5α-pregnane-11,20-dione], the “recoveries classified as excellent” value (alfaxalone alone recoveries) is reported as “Four of the five”.

For `C=CCC1(C(C)CCC)C(=O)N=C(S)NC1=O` (stereo not drawn) [thiamylal, thiamylal sodium], the blood pressure effect (after xylazine premedication) was “the same effect”.

`Cc1cccc(C)c1N=C1NCCCS1` [xylazine] was tested, and the sedation (0.6 mg/kg i.v.) was “good sedation without ataxia”.
